The molecules below were run against T1, human recombinant OX2 (hOX2) receptor expressed in CHO cells (Homo sapiens, UniProt O43614) (assay: IP-1 accumulation assay (IP-One HTRF) in hOX2-CHO cells). Conditions: 60 min at 37° C., 11 points CRC, response as % of maximal OX-A response.
T1 construct: host or cells: CHO cells (hOX2-CHO)
T1 sequence (O43614 1-444): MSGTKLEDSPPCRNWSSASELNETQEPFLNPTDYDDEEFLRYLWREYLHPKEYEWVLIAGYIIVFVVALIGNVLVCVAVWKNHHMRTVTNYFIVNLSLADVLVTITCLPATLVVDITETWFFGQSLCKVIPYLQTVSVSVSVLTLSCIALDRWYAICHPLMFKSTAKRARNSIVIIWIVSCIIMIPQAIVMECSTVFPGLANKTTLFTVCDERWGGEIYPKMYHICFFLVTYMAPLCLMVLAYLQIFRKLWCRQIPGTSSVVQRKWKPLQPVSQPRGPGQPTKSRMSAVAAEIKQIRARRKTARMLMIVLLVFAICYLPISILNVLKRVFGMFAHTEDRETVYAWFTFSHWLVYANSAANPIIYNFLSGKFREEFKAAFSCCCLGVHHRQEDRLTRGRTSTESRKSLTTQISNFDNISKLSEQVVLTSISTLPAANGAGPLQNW
Format: cell-based
Method in brief: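 CHO cells expressing hOX2, 20,000 cells/well in HBSS with 20 mM HEPES pH 7.4, 50 mM LiCl, 0.1% BSA; 11-point compound series, 0.5% DMSO final, 60 min at 37 °C. IP-1 by HTRF (665/615 ratio) after 60 min at room temperature, as % of maximal OX-A response; EC50 by four-parameter logistic fit, mean of ≥2 experiments in duplicate.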

EC50 [nM] | Compound
> 10000 | Cn1cccc(C(CNS(C)(=O)=O)CO[C@H]2CC[C@@H](c3ccccc3)CC2)c1=O (single isomer, unassigned; isomer 2) [Example 4b, (S or R) N-[2-(1-methyl-2-oxo-1,2-dihydropyridin-3-yl)-3-{[(CIS)-4-phenylcyclohexyl]oxy}propyl]methanesulfonamide—Isomer 2]
< 100 | Cc1cc(C(CNS(=O)(=O)N(C)C)CO[C@H]2CC[C@@H](c3cccc(F)c3)CC2)c(=O)n(C(F)F)c1 (stereo partly drawn) [Example 5aa, 1-(difluoromethyl)-3-{1-[(dimethylsulfamoyl)amino]-3-{[(CIS)-4-(3-fluorophenyl)cyclohexyl]oxy}propan-2-yl}-5-methyl-1,2-dihydropyridin-2-one]
< 100 | Cc1cc(C(CNS(=O)(=O)CF)CO[C@H]2CC[C@@H](c3cccc(F)c3)CC2)c(=O)n(C)c1 (single isomer, unassigned; isomer 1) [Example 5n, (R or S) N-[2-(1,5-dimethyl-2-oxo-1,2-dihydropyridin-3-yl)-3-{[(CIS)-4-(3-fluorophenyl)cyclohexyl]oxy}propyl]-1-fluoromethanesulfonamide—Isomer 1]
100 to 1000 | Cc1cc(C(CNS(=O)(=O)N(C)C)CO[C@H]2CC[C@@H](c3ccccc3)CC2)n2nccc2c1 (stereo partly drawn) [Example 5g, dimethyl[(2-{5-methylpyrazolo[1,5-a]pyridin-7-yl}-3-{[(CIS)-4-phenylcyclohexyl]oxy}propyl)sulfamoyl]amine]
1000 to 10000 | CN(C)S(=O)(=O)NCC(CO[C@H]1CC[C@@H](c2cccc(F)c2)CC1)c1cccc2c1nnn2C (stereo partly drawn) [Example 5h, dimethyl({[2-(1-methyl-1H-1,2,3-benzotriazol-4-yl)-3-{[(CIS)-4-(3-fluorophenyl)cyclohexyl]oxy}propyl]sulfamoyl})amine]
< 100 | Cc1cc(C(CNS(=O)(=O)N(C)C)CO[C@H]2CC[C@@H](c3cccc(F)c3)CC2)c(=O)n(C(F)F)c1 (single isomer, unassigned; isomer 1) [Example 5ab, (R or S) 1-(difluoromethyl)-3-[1-[(dimethylsulfamoyl)amino]-3-{[(CIS)-4-(3-fluorophenyl)cyclohexyl]oxy}propan-2-yl]-5-methyl-1,2-dihydropyridin-2-one—Isomer 1]
1000 to 10000 | Cc1cc(C(CNS(C)(=O)=O)CO[C@H]2CC[C@@H](c3ccccc3)CC2)c(=O)n(C)c1 (stereo partly drawn) [Example 5a, N-[2-(1,5-dimethyl-2-oxo-1,2-dihydropyridin-3-yl)-3-{[(CIS)-4-phenylcyclohexyl]oxy}propyl]methanesulfonamide]
100 to 1000 | CS(=O)(=O)NCC(CO[C@H]1CC[C@@H](c2ccccc2)CC1)c1cccn2cnnc12 (stereo partly drawn) [Example 5f, N-(3-{[(CIS)-4-phenylcyclohexyl]oxy}-2-{[1,2,4]triazolo[4,3-a]pyridin-8-yl}propyl)methanesulfonamide]
100 to 1000 | Cc1cc(-n2cccn2)cn(C(CNS(C)(=O)=O)CO[C@H]2CC[C@@H](c3ccccc3)CC2)c1=O (stereo partly drawn) [Example 7a, N-{2-[3-methyl-2-oxo-5-(1H-pyrazol-1-yl)-1,2-dihydropyridin-1-yl]-3-{[(CIS)-4-phenylcyclohexyl]oxy}propyl}methanesulfonamide]
100 to 1000 | Cc1cc(C(CNS(C)(=O)=O)CO[C@H]2CC[C@@H](c3cccc(F)c3)CC2)c(=O)n(C)c1 (single isomer, unassigned; isomer 2) [Example 5d, (S or R) N-[2-(1,5-dimethyl-2-oxo-1,2-dihydropyridin-3-yl)-3-{[(CIS)-4-(3-fluorophenyl)cyclohexyl]oxy}propyl]methanesulfonamide—Isomer 2]
< 100 | Cc1cc(C(CNS(=O)(=O)CF)CO[C@H]2CC[C@@H](c3cccc(F)c3)CC2)c(=O)n(C)c1 (stereo partly drawn) [Example 5m, N-[2-(1,5-dimethyl-2-oxo-1,2-dihydropyridin-3-yl)-3-{[(CIS)-4-(3-fluorophenyl)cyclohexyl]oxy}propyl]-1-fluoromethanesulfonamide]
< 100 | Cc1cc(C(CNS(C)(=O)=O)CO[C@H]2CC[C@@H](c3cccc(F)c3)CC2)c(=O)n(C)c1 (single isomer, unassigned; isomer 1) [Example 5c, (R or S) N-[2-(1,5-dimethyl-2-oxo-1,2-dihydropyridin-3-yl)-3-{[(CIS)-4-(3-fluorophenyl)cyclohexyl]oxy}propyl]methanesulfonamide—Isomer 1]
> 10000 | Cc1cccn(C(CO[C@H]2CC[C@@H](c3ccccc3)CC2)C(C)NS(C)(=O)=O)c1=O (single isomer, unassigned; isomer 3) [Example 3c, (2S or 2R) and (3R or 3S) N-[3-(3-methyl-2-oxo-1,2-dihydropyridin-1-yl)-4-{[(CIS)-4-phenylcyclohexyl]oxy}butan-2-yl]methanesulfonamide—Isomer 3]

More lines, now with the values behind:

Compound | EC50 [nM]
Cc1cc(C)c(=O)n(C(CNS(C)(=O)=O)CO[C@H]2CC[C@@H](c3ccccc3)CC2)c1 (single isomer, unassigned; isomer 1) [Example 2t, (R or S) N-[2-(3,5-dimethyl-2-oxo-1,2-dihydropyridin-1-yl)-3-{[(CIS)-4-phenylcyclohexyl]oxy}propyl]methanesulfonamide-Isomer 1] | < 100
Cc1cc(C)c(=O)n(C(CNS(=O)(=O)N(C)C)CO[C@H]2CC[C@@H](C3CC3)CC2)c1 (stereo partly drawn) [Example 2bc, 1-{1-[(dimethylsulfamoyl)amino]-3-{[(CIS)-4-cyclopropylcyclohexyl]oxy}propan-2-yl}-3,5-dimethyl-1,2-dihydropyridin-2-one] | 100 to 1000
Cc1cncn(C(CNS(C)(=O)=O)CO[C@H]2CC[C@@H](c3ccccc3)CC2)c1=O (stereo partly drawn) [Example 2aj, N-[2-(5-methyl-6-oxo-1,6-dihydropyrimidin-1-yl)-3-{[(CIS)-4-phenylcyclohexyl]oxy}propyl]methanesulfonamide] | > 10000
Cc1cc(C)c(=O)n(C(CNS(=O)(=O)CC(F)(F)F)CO[C@H]2CC[C@@H](c3cccc(F)c3)CC2)c1 (stereo partly drawn) [Example 2ap, N-[2-(3,5-dimethyl-2-oxo-1,2-dihydropyridin-1-yl)-3-{[(CIS)-4-(3-fluorophenyl)cyclohexyl]oxy}propyl]-2,2,2-trifluoroethane-1-sulfonamide] | 100 to 1000
CS(=O)(=O)NCC(CO[C@H]1CC[C@@H](c2ccccc2)CC1)n1ccc(C(F)(F)F)cc1=O (stereo partly drawn) [Example 2w, N-{2-[2-oxo-4-(trifluoromethyl)-1,2-dihydropyridin-1-yl]-3-{[(CIS)-4-phenylcyclohexyl]oxy}propyl}methanesulfonamide] | > 10000
CS(=O)(=O)NCC(CO[C@H]1CC[C@@H](c2ccccc2)CC1)n1cc(C(F)(F)F)ccc1=O (stereo partly drawn) [Example 2l, N-{2-[2-oxo-5-(trifluoromethyl)-1,2-dihydropyridin-1-yl]-3-{[(CIS)-4-phenylcyclohexyl]oxy}propyl}methanesulfonamide] | > 10000
CS(=O)(=O)NCC(CO[C@H]1CC[C@@H](c2ccccc2)CC1)n1ccc(C#N)cc1=O (stereo partly drawn) [Example 2y, N-[2-(4-cyano-2-oxo-1,2-dihydropyridin-1-yl)-3-{[(CIS)-4-phenylcyclohexyl]oxy}propyl]methanesulfonamide] | > 10000
CS(=O)(=O)NCC(CO[C@H]1CC[C@@H](c2ccccc2)CC1)n1cccc(F)c1=O (stereo partly drawn) [Example 2f, N-[2-(3-fluoro-2-oxo-1,2-dihydropyridin-1-yl)-3-{[(CIS)-4-phenylcyclohexyl]oxy}propyl]methanesulfonamide] | 1000 to 10000
Cc1cc(C)c(=O)n(C(CNS(C)(=O)=O)CO[C@H]2CC[C@@H](c3cccc(F)c3)CC2)c1 (single isomer, unassigned; isomer 1) [Example 2af, (R or S) N-[2-(3,5-dimethyl-2-oxo-1,2-dihydropyridin-1-yl)-3-{[(CIS)-4-(3-fluorophenyl)cyclohexyl]oxy}propyl]methanesulfonamide-Isomer 1] | < 100
Cc1cc(Br)cn(C(CNS(C)(=O)=O)CO[C@H]2CC[C@@H](c3ccccc3)CC2)c1=O (stereo partly drawn) [Example 2x, N-[2-(5-bromo-3-methyl-2-oxo-1,2-dihydropyridin-1-yl)-3-{[(CIS)-4-phenylcyclohexyl]oxy}propyl]methanesulfonamide] | 100 to 1000
Cc1ccn(C(CNS(C)(=O)=O)CO[C@H]2CC[C@@H](c3ccccc3)CC2)n1 (stereo partly drawn) [Example 2aa, N-[2-(3-methyl-1H-pyrazol-1-yl)-3-{[(CIS)-4-phenylcyclohexyl]oxy}propyl]methanesulfonamide] | > 10000
Cc1cc(C)c(=O)n(C(CNS(=O)(=O)N(C)C)CO[C@H]2CC[C@@H](c3cccc(F)c3)CC2)c1 (single isomer, unassigned; isomer 2) [Example 2as, (S or R) 1-[1-[(dimethylsulfamoyl)amino]-3-{[(CIS)-4-(3-fluorophenyl)cyclohexyl]oxy}propan-2-yl]-3,5-dimethyl-1,2-dihydropyridin-2-one-Isomer 2] | 100 to 1000
Cc1cc(C)c(=O)n(C(CNS(=O)(=O)N(C)C)CO[C@H]2CC[C@@H](c3cccc(F)c3)CC2)c1 (stereo partly drawn) [Example 2aq, 1-{1-[(dimethylsulfamoyl)amino]-3-{[(CIS)-4-(3-fluorophenyl)cyclohexyl]oxy}propan-2-yl}-3,5-dimethyl-1,2-dihydropyridin-2-one] | < 100

From patent publication US20240360081A1, “SULFONAMIDE OREXIN RECEPTOR AGONISTS AND USES THEREOF” (Jazz Pharmaceuticals Ireland Limited, priority 2021, published 2024)
